test system: not listed separately; assay: DRUGMATRIX: ATPase, Na+/K+ enzyme inhibition (substrate: ATP); assay type: tissue-based, Sus scrofa, Heart; conditions: Not Active = under 50% inhibition at 10 µM

Row | SMILES | IC50 | Ki
1 | C#CC1(O)CC[C@H]2[C@@H]3CCC4=CC(=O)CC[C@@H]4[C@H]3CC[C@@]21CC (some centres not stated) [NORGESTREL] | Not Active | Not Active
2 | COC(=O)Nc1nc2ccc([S+]([O-])c3ccccc3)cc2[nH]1 (configuration not stated) [OXFENDAZOLE] | Not Active | Not Active
3 | C[n+]1ccc(-c2cc[n+](C)cc2)cc1.[Cl-].[Cl-] [PARAQUAT DICHLORIDE] | Not Active | Not Active
4 | CCn1cc(C(=O)O)c(=O)c2cnc(N3CCCC3)nc21 [PIROMIDIC ACID] | Not Active | Not Active
5 | C[n+]1ccccc1/C=N/O.[Cl-] [PRALIDOXIME CHLORIDE] | Not Active | Not Active
6 | COc1cc2nc(N3CCN(C(=O)c4ccco4)CC3)nc(N)c2cc1OC [PRAZOSIN] | Not Active | Not Active
7 | C[C@]12C=CC(=O)C=C1CC[C@@H]1[C@@H]2[C@@H](O)C[C@@]2(C)[C@H]1CC[C@]2(O)C(=O)CO [PREDNISOLONE] | Not Active | Not Active

target: T1, Cholecystokinin receptor type A (Homo sapiens, UniProt P32238); assay type: cell membranes, Membrane; conditions: 1321-n1; also: in other assays of this panel Not Active means under 50% inhibition at 10 µM
T1 sequence (P32238 whole entry): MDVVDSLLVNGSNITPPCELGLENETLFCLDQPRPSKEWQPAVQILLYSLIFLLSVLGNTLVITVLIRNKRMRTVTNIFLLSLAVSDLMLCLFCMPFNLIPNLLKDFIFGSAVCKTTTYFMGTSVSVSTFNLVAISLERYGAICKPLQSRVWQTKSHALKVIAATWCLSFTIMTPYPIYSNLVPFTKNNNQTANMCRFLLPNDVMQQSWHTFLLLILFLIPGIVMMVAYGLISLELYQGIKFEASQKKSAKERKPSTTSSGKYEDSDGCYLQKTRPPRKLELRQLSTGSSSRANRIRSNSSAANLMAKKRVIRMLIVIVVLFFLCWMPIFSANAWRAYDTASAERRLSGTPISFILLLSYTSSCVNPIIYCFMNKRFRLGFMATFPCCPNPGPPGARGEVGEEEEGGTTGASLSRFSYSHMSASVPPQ

Row | SMILES | IC50
8 | C#CC1(O)CC[C@H]2[C@@H]3CCC4=CC(=O)CC[C@@H]4[C@H]3CC[C@@]21CC (some centres not stated) [NORGESTREL] | Not Active
9 | COC(=O)Nc1nc2ccc([S+]([O-])c3ccccc3)cc2[nH]1 (configuration not stated) [OXFENDAZOLE] | Not Active
10 | C[n+]1ccc(-c2cc[n+](C)cc2)cc1.[Cl-].[Cl-] [PARAQUAT DICHLORIDE] | Not Active
11 | CCn1cc(C(=O)O)c(=O)c2cnc(N3CCCC3)nc21 [PIROMIDIC ACID] | Not Active
12 | C[n+]1ccccc1/C=N/O.[Cl-] [PRALIDOXIME CHLORIDE] | Not Active
13 | COc1cc2nc(N3CCN(C(=O)c4ccco4)CC3)nc(N)c2cc1OC [PRAZOSIN] | Not Active
14 | C[C@]12C=CC(=O)C=C1CC[C@@H]1[C@@H]2[C@@H](O)C[C@@]2(C)[C@H]1CC[C@]2(O)C(=O)CO [PREDNISOLONE] | Not Active

target: Melanocortin receptor 3 (Homo sapiens, UniProt P41968); assay type: cell membranes, HEK293, Membrane; conditions: hek293; also: in other assays of this panel Not Active means under 50% inhibition at 10 µM
Sequence (P41968 whole entry): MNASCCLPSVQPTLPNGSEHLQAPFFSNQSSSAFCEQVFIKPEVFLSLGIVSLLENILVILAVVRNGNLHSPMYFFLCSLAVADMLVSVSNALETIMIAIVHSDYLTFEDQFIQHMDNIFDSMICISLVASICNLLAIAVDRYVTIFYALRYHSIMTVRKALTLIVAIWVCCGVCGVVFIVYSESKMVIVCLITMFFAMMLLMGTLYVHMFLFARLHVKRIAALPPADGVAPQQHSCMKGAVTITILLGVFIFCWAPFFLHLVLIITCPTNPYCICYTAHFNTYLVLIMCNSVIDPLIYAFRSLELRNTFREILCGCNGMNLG

Row | SMILES | IC50
15 | C#CC1(O)CC[C@H]2[C@@H]3CCC4=CC(=O)CC[C@@H]4[C@H]3CC[C@@]21CC (some centres not stated) [NORGESTREL] | Not Active
16 | COC(=O)Nc1nc2ccc([S+]([O-])c3ccccc3)cc2[nH]1 (configuration not stated) [OXFENDAZOLE] | Not Active
17 | C[n+]1ccc(-c2cc[n+](C)cc2)cc1.[Cl-].[Cl-] [PARAQUAT DICHLORIDE] | Not Active
18 | CCn1cc(C(=O)O)c(=O)c2cnc(N3CCCC3)nc21 [PIROMIDIC ACID] | Not Active
19 | C[n+]1ccccc1/C=N/O.[Cl-] [PRALIDOXIME CHLORIDE] | Not Active
20 | COc1cc2nc(N3CCN(C(=O)c4ccco4)CC3)nc(N)c2cc1OC [PRAZOSIN] | Not Active
21 | C[C@]12C=CC(=O)C=C1CC[C@@H]1[C@@H]2[C@@H](O)C[C@@]2(C)[C@H]1CC[C@]2(O)C(=O)CO [PREDNISOLONE] | Not Active

target: T2, Amine oxidase [flavin-containing] A (Homo sapiens, UniProt P21397); assay: DRUGMATRIX: Monoamine Oxidase MAO-A enzyme inhibition (substrate: Kynuramine); set-up: species or system BTI-TN-5B1-4; conditions: bti-tn-5b1-4; Not Active = under 50% inhibition at 10 µM
T2 sequence (P21397 whole entry): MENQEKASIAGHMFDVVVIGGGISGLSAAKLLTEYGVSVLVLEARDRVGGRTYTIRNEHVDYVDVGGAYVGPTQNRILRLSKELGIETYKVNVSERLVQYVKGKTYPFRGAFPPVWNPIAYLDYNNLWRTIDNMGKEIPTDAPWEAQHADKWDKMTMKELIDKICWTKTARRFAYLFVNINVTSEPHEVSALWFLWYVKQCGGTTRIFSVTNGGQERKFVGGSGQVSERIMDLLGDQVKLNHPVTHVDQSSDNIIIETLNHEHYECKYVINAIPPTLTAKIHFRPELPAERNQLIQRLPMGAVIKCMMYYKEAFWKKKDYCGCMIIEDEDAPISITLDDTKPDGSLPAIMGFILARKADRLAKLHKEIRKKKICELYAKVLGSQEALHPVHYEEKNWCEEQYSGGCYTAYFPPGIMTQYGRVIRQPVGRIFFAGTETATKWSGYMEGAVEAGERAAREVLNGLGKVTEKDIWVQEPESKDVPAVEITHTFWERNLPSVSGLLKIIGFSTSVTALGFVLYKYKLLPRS

Row | SMILES | IC50
22 | C#CC1(O)CC[C@H]2[C@@H]3CCC4=CC(=O)CC[C@@H]4[C@H]3CC[C@@]21CC (some centres not stated) [NORGESTREL] | Not Active
23 | COC(=O)Nc1nc2ccc([S+]([O-])c3ccccc3)cc2[nH]1 (configuration not stated) [OXFENDAZOLE] | Not Active
24 | C[n+]1ccc(-c2cc[n+](C)cc2)cc1.[Cl-].[Cl-] [PARAQUAT DICHLORIDE] | Not Active
25 | CCn1cc(C(=O)O)c(=O)c2cnc(N3CCCC3)nc21 [PIROMIDIC ACID] | Not Active
26 | C[n+]1ccccc1/C=N/O.[Cl-] [PRALIDOXIME CHLORIDE] | Not Active
27 | COc1cc2nc(N3CCN(C(=O)c4ccco4)CC3)nc(N)c2cc1OC [PRAZOSIN] | Not Active
28 | C[C@]12C=CC(=O)C=C1CC[C@@H]1[C@@H]2[C@@H](O)C[C@@]2(C)[C@H]1CC[C@]2(O)C(=O)CO [PREDNISOLONE] | Not Active

test system: not listed separately; assay: DRUGMATRIX: Phosphodiesterase PDE4 enzyme inhibition (substrate: [3H]cAMP + cAMP); conditions: u-937; Not Active = under 50% inhibition at 10 µM

Row | SMILES | IC50 | Ki
29 | C#CC1(O)CC[C@H]2[C@@H]3CCC4=CC(=O)CC[C@@H]4[C@H]3CC[C@@]21CC (some centres not stated) [NORGESTREL] | Not Active | Not Active
30 | COC(=O)Nc1nc2ccc([S+]([O-])c3ccccc3)cc2[nH]1 (configuration not stated) [OXFENDAZOLE] | Not Active | Not Active
31 | C[n+]1ccc(-c2cc[n+](C)cc2)cc1.[Cl-].[Cl-] [PARAQUAT DICHLORIDE] | Not Active | Not Active
32 | CCn1cc(C(=O)O)c(=O)c2cnc(N3CCCC3)nc21 [PIROMIDIC ACID] | Not Active | Not Active
33 | C[n+]1ccccc1/C=N/O.[Cl-] [PRALIDOXIME CHLORIDE] | Not Active | Not Active
34 | COc1cc2nc(N3CCN(C(=O)c4ccco4)CC3)nc(N)c2cc1OC [PRAZOSIN] | Not Active | Not Active
35 | C[C@]12C=CC(=O)C=C1CC[C@@H]1[C@@H]2[C@@H](O)C[C@@]2(C)[C@H]1CC[C@]2(O)C(=O)CO [PREDNISOLONE] | Not Active | Not Active

target: T3, Caspase-1 (Homo sapiens, UniProt P29466); set-up: species or system Escherichia coli; conditions: not given;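 also: Caspase-1 enzyme inhibition assay with a peptide substrate; in other assays of this panel Not Active means under 50% inhibition at 10 µM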
T3 sequence (P29466 whole entry): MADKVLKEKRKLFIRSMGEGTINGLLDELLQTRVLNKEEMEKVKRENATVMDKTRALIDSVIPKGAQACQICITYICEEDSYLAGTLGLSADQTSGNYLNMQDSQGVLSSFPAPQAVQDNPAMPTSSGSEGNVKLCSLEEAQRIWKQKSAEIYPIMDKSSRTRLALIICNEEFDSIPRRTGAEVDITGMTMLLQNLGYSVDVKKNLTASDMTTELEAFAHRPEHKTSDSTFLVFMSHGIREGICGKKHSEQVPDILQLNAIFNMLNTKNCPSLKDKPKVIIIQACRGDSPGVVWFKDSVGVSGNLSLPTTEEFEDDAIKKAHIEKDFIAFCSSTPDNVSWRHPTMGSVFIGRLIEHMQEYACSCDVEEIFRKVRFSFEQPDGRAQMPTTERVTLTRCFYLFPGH

Row | SMILES | IC50
36 | C#CC1(O)CC[C@H]2[C@@H]3CCC4=CC(=O)CC[C@@H]4[C@H]3CC[C@@]21CC (some centres not stated) [NORGESTREL] | Not Active
37 | COC(=O)Nc1nc2ccc([S+]([O-])c3ccccc3)cc2[nH]1 (configuration not stated) [OXFENDAZOLE] | Not Active
38 | C[n+]1ccc(-c2cc[n+](C)cc2)cc1.[Cl-].[Cl-] [PARAQUAT DICHLORIDE] | Not Active
39 | CCn1cc(C(=O)O)c(=O)c2cnc(N3CCCC3)nc21 [PIROMIDIC ACID] | Not Active
40 | C[n+]1ccccc1/C=N/O.[Cl-] [PRALIDOXIME CHLORIDE] | Not Active
41 | COc1cc2nc(N3CCN(C(=O)c4ccco4)CC3)nc(N)c2cc1OC [PRAZOSIN] | Not Active
42 | C[C@]12C=CC(=O)C=C1CC[C@@H]1[C@@H]2[C@@H](O)C[C@@]2(C)[C@H]1CC[C@]2(O)C(=O)CO [PREDNISOLONE] | Not Active

target: Mitogen-activated protein kinase 3 (Homo sapiens, UniProt P27361); assay: DRUGMATRIX: Protein Serine/Threonine Kinase, ERK1 enzyme inhibition (substrate: Myelin Basic Protein); set-up: species or system Escherichia coli; conditions: Not Active = under 50% inhibition at 10 µM
Sequence (P27361 whole entry): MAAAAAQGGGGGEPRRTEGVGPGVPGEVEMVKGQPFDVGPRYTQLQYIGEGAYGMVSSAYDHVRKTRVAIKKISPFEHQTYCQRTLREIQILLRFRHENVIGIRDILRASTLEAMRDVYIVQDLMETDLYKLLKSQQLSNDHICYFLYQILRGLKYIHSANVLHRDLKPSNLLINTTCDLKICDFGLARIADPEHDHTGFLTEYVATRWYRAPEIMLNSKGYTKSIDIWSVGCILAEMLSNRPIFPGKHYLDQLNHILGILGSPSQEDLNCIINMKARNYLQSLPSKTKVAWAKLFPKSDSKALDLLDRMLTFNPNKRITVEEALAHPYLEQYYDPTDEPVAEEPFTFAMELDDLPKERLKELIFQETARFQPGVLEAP

Row | SMILES | IC50
43 | C#CC1(O)CC[C@H]2[C@@H]3CCC4=CC(=O)CC[C@@H]4[C@H]3CC[C@@]21CC (some centres not stated) [NORGESTREL] | Not Active
44 | COC(=O)Nc1nc2ccc([S+]([O-])c3ccccc3)cc2[nH]1 (configuration not stated) [OXFENDAZOLE] | Not Active
45 | C[n+]1ccc(-c2cc[n+](C)cc2)cc1.[Cl-].[Cl-] [PARAQUAT DICHLORIDE] | Not Active
46 | CCn1cc(C(=O)O)c(=O)c2cnc(N3CCCC3)nc21 [PIROMIDIC ACID] | Not Active
47 | C[n+]1ccccc1/C=N/O.[Cl-] [PRALIDOXIME CHLORIDE] | Not Active
48 | COc1cc2nc(N3CCN(C(=O)c4ccco4)CC3)nc(N)c2cc1OC [PRAZOSIN] | Not Active
49 | C[C@]12C=CC(=O)C=C1CC[C@@H]1[C@@H]2[C@@H](O)C[C@@]2(C)[C@H]1CC[C@]2(O)C(=O)CO [PREDNISOLONE] | Not Active

target: Cytochrome P450 2C9 (Homo sapiens, UniProt P11712); conditions: bti-tn-5b1-4; also: in other assays of this panel Not Active means under 50% inhibition at 10 µM
Sequence (P11712 whole entry): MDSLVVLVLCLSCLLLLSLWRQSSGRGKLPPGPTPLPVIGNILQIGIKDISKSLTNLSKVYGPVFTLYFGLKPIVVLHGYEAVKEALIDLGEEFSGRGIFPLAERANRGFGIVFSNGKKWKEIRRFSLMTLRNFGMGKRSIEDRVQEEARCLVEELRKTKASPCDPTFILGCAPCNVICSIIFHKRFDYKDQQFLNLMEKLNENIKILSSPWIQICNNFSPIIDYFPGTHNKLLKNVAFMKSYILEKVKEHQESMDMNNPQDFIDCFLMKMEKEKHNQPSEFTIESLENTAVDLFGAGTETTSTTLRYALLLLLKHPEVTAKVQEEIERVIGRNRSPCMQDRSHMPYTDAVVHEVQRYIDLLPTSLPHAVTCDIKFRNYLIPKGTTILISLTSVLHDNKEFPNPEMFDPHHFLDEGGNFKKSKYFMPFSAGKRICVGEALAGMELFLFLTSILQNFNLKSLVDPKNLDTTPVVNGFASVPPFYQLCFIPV

Row | SMILES | IC50 | Ki
50 | C#CC1(O)CC[C@H]2[C@@H]3CCC4=CC(=O)CC[C@@H]4[C@H]3CC[C@@]21CC (some centres not stated) [NORGESTREL] | Not Active | Not Active
51 | COC(=O)Nc1nc2ccc([S+]([O-])c3ccccc3)cc2[nH]1 (configuration not stated) [OXFENDAZOLE] | Not Active | Not Active
52 | C[n+]1ccc(-c2cc[n+](C)cc2)cc1.[Cl-].[Cl-] [PARAQUAT DICHLORIDE] | Not Active | Not Active
53 | CCn1cc(C(=O)O)c(=O)c2cnc(N3CCCC3)nc21 [PIROMIDIC ACID] | Not Active | Not Active
54 | C[n+]1ccccc1/C=N/O.[Cl-] [PRALIDOXIME CHLORIDE] | Not Active | Not Active
55 | COc1cc2nc(N3CCN(C(=O)c4ccco4)CC3)nc(N)c2cc1OC [PRAZOSIN] | Not Active | Not Active
56 | C[C@]12C=CC(=O)C=C1CC[C@@H]1[C@@H]2[C@@H](O)C[C@@]2(C)[C@H]1CC[C@]2(O)C(=O)CO [PREDNISOLONE] | Not Active | Not Active

From ChEMBL document CHEMBL1909046, “DrugMatrix in vitro pharmacology data”
